Reference: US20250388593A1 (MITSUBISHI TANABE PHARMA CORPORATION, priority 2023, published 2025)

target: CRBN truncate (318-426) (Homo sapiens (Human), UniProt Q96SW2); assay: Measurement of molecular interactions using surface plasmon resonance (SPR), Biacore T200; type: binding; settings: 25° C., immobilized CRBN truncate, upper limit of measurement 200 μM
Procedure: The instrument used was the Biacore T200 (manufactured by Cytiva). The CRBN truncate (318-426) was obtained by expressing a construct with an Avi-tag added at the C-terminus. The sensor chip used was Sensor Chip SA (manufactured by Cytiva). The CRBN truncate was immobilized using the affinity between SA (streptavidin) on the sensor chip and the Avi-tag. The running buffer was a mixture of 10 mM HEPES pH 7.5, 150 mM NaCl, 1 mM TCEP, 0.005% Tween 20, and 2% DMSO. […] Contact time and dissociation time were set at 60 seconds and 120 seconds, respectively.

Chain of CRBN truncate (318-426) (Q96SW2 318-426): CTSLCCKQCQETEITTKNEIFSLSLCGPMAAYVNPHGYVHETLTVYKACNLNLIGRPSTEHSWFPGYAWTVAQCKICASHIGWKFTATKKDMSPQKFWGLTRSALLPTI

Row | Kd | Structure (SMILES)
1 | ≥ 100 µM | O=C1NC(=O)C2(Nc3cccc(Br)c3)CCC1CC2 [Example 165, 1-(3-Bromoanilino)-3-azabicyclo [3.2.2]nonane-2,4-dione]
2 | 50 to 100 µM | COc1cc([N+](=O)[O-])ccc1N1CCC2(CCCC(=O)NC2=O)C1 (stereo not shown) [Example 42, 2-(2-Methoxy-4-nitrophenyl)-2,7-diazaspiro[4.6]undecane-6,8-dione]
3 | ≥ 100 µM | Cn1c(=O)n(C2CCCC(=O)NC2=O)c(=O)c2ccc(CCC(=O)OC(C)(C)C)cc21 (stereo not shown) [Example 265, tert-Butyl 3-[3-(2,7-dioxoazepan-3-yl)-1-methyl-2,4-dioxoquinazolin-7-yl]propanoate]
4 | 50 to 100 µM | CC(C)(C)OC(=O)c1ccc(N2CCC3(CCCC(=O)NC3=O)CC2=O)nc1 (stereo not shown) [Example 108, tert-Butyl 6-(4,7,9-trioxo-3,8-diazaspiro [5.6]dodecan-3-yl) pyridine-3-carboxylate]
5 | ≥ 100 µM | CC(C)(C)OC(=O)NCCOCCOCCn1c(=O)n(C2CCCC(=O)NC2=O)c2ccccc21 (stereo not shown) [Example 199, tert-Butyl N-[2-[2-[2-[3-(2,7-dioxoazepan-3-yl)-2-oxobenzimidazol-1-yl]ethoxy]ethoxy]ethyl]carbamate]
6 | ≥ 100 µM | COc1cccc2sc(N3CCC4(CCCC(=O)NC4=O)C3)nc12 (stereo not shown) [Example 189, 2-(4-Methoxy-1,3-benzothiazol-2-yl)-2,7-diazaspiro[4.6]undecane-6,8-dione]
7 | ≥ 100 µM | Cc1sc2c(c1C)C(c1ccc(Cl)cc1)=N[C@@H](CC(=O)NCCCCCCCCN1CC3(CC(=O)N(C4CCC(=O)NC4=O)C3=O)C1)c1nnc(C)n1-2 (stereo partly drawn) [Example 309, 2-[(9S)-7-(4-chlorophenyl)-4,5,13-trimethyl-3-thia-1,8,11,12-tetraazatricyclo[8.3.0.02,6]trideca-2(6),4,7,10,12-pentaen-9-yl]-N-[8-[6-(2,6-dioxopiperidin-3-yl)-5,7-dioxo-2,6-diazaspiro[3.4]octan-2-yl]octyl]acetamide]
8 | < 50 µM | CC(C)(C)OC(=O)c1cccc(N2CCC3(CCCC(=O)NC3=O)C2)c1 (stereo not shown) [Example 123, tert-Butyl 3-(6,8-dioxo-2,7-diazaspiro [4.6]undecan-2-yl) benzoate]
9 | ≥ 100 µM | CC(C)(C)OC(=O)N1CCC(c2cn(C3CCCC(=O)NC3=O)nn2)CC1 (stereo not shown) [Example 2, tert-Butyl 4-[1-(2,7-dioxoazepan-3-yl)triazol-4-yl]piperidine-1-carboxylate]
10 | ≥ 100 µM | CC(C)(C)OC(=O)c1ccc(N2CCCC3(COCC(=O)NC3=O)C2)nc1 (stereo not shown) [Example 15, tert-Butyl 6-(10,12-dioxo-8-oxa-2,11-diazaspiro [5.6]dodecan-2-yl) pyridine-3-carboxylate]
11 | ≥ 100 µM | O=C1CCCC(NC(=O)c2cccc(-c3ccccc3)c2)C(=O)N1 (stereo not shown) [Example 21, N-(2,7-dioxoazepan-3-yl)-3-phenylbenzamide]
12 | < 50 µM | CN1C(=O)C(C)(N2C=CCC(=O)NC2=O)c2ccc(/C=C/C(=O)OC(C)(C)C)cc21 (stereo not shown) [Example 288, tert-Butyl (E)-3-[3-(2,4-dioxo-5H-1,3-diazepin-1-yl)-1,3-dimethyl-2-oxoindolin-6-yl]prop-2-enoate]
13 | ≥ 100 µM | CC(C)(C)OC(=O)NCCCCCN1CC2(CC(=O)N(C3CCC(=O)NC3=O)C2=O)C1 (stereo not shown) [Example 50, tert-Butyl N-[5-[6-(2,6-dioxopiperidin-3-yl)-5,7-dioxo-2,6-diazaspiro[3.4]octan-2-yl]pentyl]carbamate]
14 | ≥ 100 µM | CN1C(=O)[C@H](N2C=CCC(=O)NC2=O)C[C@H]1c1ccc(/C=C/C(=O)OC(C)(C)C)cc1 (relative stereo) [Example 290, tert-Butyl (E)-3-[4-[(2S*,4R*)-4-(2,4-dioxo-5H-1,3-diazepin-1-yl)-1-methyl-5-oxopyrrolidin-2-yl]phenyl]prop-2-enoate]
15 | 50 to 100 µM | CC(C)(C)OC(=O)NCCCCCCCCn1ccc2c(N3CCC4(CCCC(=O)NC4=O)C3)ncnc21 (stereo not shown) [Example 186, tert-Butyl N-[8-[4-(6,8-dioxo-2,7-diazaspiro[4.6]undecan-2-yl)pyrrolo[2,3-d]pyrimidin-7-yl]octyl]carbamate]
16 | < 50 µM | Cc1sc2c(c1C)C(c1ccc(Cl)cc1)=N[C@@H](CC(=O)NCCCCCCCCNC(=O)Cn1c(=O)n(C3CCCC(=O)NC3=O)c3ccccc31)c1nnc(C)n1-2 (stereo partly drawn) [Example 332, 2-[(9S)-7-(4-chlorophenyl)-4,5,13-trimethyl-3-thia-1,8,11,12-tetraazatricyclo[8.3.0.02,6]trideca-2(6),4,7,10,12-pentaen-9-yl]-N-[8-[[2-[3-(2,7-dioxoazepan-3-yl)-2-oxobenzimidazol-1-yl]acetyl]amino]octyl]acetamide]
17 | < 50 µM | CCOC(=O)c1ccc2nc(N3CC4(CC(=O)N(C5CCC(=O)NC5=O)C4)C3)sc2c1 (stereo not shown) [Example 59, Ethyl 2-[6-(2,6-dioxo-3-piperidyl)-7-oxo-2,6-diazaspiro [3.4]octan-2-yl]-1,3-benzothiazole-6-carboxylate]
18 | < 50 µM | Cc1sc2c(c1C)C(c1ccc(Cl)cc1)=N[C@@H](CC(=O)NCCCCCCCCNC(=O)COc1ccccc1-c1cn(C3CCCC(=O)NC3=O)nn1)c1nnc(C)n1-2 (stereo partly drawn) [Example 340, 2-[(9S)-7-(4-chlorophenyl)-4,5,13-trimethyl-3-thia-1,8,11,12-tetraazatricyclo[8.3.0.02,6]trideca-2(6),4,7,10,12-pentaen-9-yl]-N-[8-[[2-[2-[1-(2,7-dioxoazepan-3-yl)triazol-4-yl]phenoxy]acetyl]amino]octyl]acetamide]

Row | Kd | Structure (SMILES)
19 | ≥ 100 µM | CC(C)(C)OC(=O)Nc1ccc(-c2cn(C3CCCC(=O)NC3=O)nn2)cc1 (stereo not shown) [Example 3, tert-Butyl N-[4-[1-(2,7-dioxoazepan-3-yl)triazol-4-yl]phenyl]carbamate]
20 | < 50 µM | CC(C)(C)OC(=O)c1ccc2nc(N3CC4(CC(=O)N(C5CCC(=O)NC5=O)C4=O)C3)sc2c1 (stereo not shown) [Example 231, tert-Butyl 2-[6-(2,6-dioxopiperidin-3-yl)-5,7-dioxo-2,6-diazaspiro[3.4]octan-2-yl]-1,3-benzothiazole-6-carboxylate]
21 | ≥ 100 µM | CN(c1ccc([N+](=O)[O-])cc1)C1CCCC(=O)NC1=O (stereo not shown) [Example 120, 3-(N-Methyl-4-nitro-anilino) azepane-2,7-dione]
22 | 50 to 100 µM | CC(=O)Nc1cccc(C2(C)CCCC(=O)NC2=O)c1 (stereo not shown) [Example 134, N-[3-(3-Methyl-2,7-dioxoazepan-3-yl)phenyl]acetamide]
23 | ≥ 100 µM | N#Cc1ccccc1N1CCC2(CCCC(=O)NC2=O)C1 (stereo not shown) [Example 191]
24 | ≥ 100 µM | CC(C)(C)OC(=O)N1CCN(c2ccnc(N3CCC4(CCCC(=O)NC4=O)C3)c2)CC1 (stereo not shown) [Example 126, tert-Butyl 4-[2-(6,8-dioxo-2,7-diazaspiro [4.6]undecan-2-yl)-4-pyridyl]piperazine-1-carboxylate]
25 | ≥ 100 µM | COc1cccc2sc(N3CC4(CC(=O)N(C5CCC(=O)NC5=O)C4=O)C3)nc12 (stereo not shown) [Example 240, 6-(2,6-Dioxopiperidin-3-yl)-2-(4-methoxy-1,3-benzothiazol-2-yl)-2,6-diazaspiro[3.4]octane-5,7-dione]
26 | ≥ 100 µM | Cn1ccc2c(C(=O)N3CCC4(CCCC(=O)NC4=O)C3)cccc21 (stereo not shown) [Example 151, 2-(1-Methylindole-4-carbonyl)-2,7-diazaspiro [4.6]undecane-6,8-dione]
27 | ≥ 100 µM | CN(C1CCCC(=O)NC1=O)S(=O)(=O)c1ccc(CNC(=O)OC(C)(C)C)cc1 (stereo not shown) [Example 27, tert-Butyl N-[[4-[(2,7-dioxoazepan-3-yl)-methylsulfamoyl]phenyl]methyl]carbamate]
28 | 50 to 100 µM | O=C1CCCC(n2cc(CCCCCCCC(=O)OCc3ccccc3)nn2)C(=O)N1 (stereo not shown) [Example 148, Benzyl 8-[1-(2,7-dioxoazepan-3-yl)triazol-4-yl]octanoate]
29 | ≥ 100 µM | O=C1CCCC2(CCN(C(=O)c3ccc4scnc4c3)C2)C(=O)N1 (stereo not shown) [Example 152, 2-(1,3-Benzothiazole-5-carbonyl)-2,7-diazaspiro[4.6]undecane-6,8-dione]
30 | ≥ 100 µM | O=C1CCCC(n2ncc(Cl)cc2=O)C(=O)N1 (stereo not shown) [Example 248, 3-(4-Chloro-6-oxopyridazin-1-yl)azepane-2,7-dione]
31 | < 50 µM | CC(C)(C)OC(=O)c1ccc(N2CCC3(CCCC(=O)NC3=O)C2)nc1 (stereo not shown) [Example 90-1, tert-Butyl 6-(6,8-dioxo-2,7-diazaspiro [4.6]undecan-2-yl) pyridine-3-carboxylate]
32 | < 50 µM | O=C1CCCC2(CCN(c3ccc([N+](=O)[O-])cc3Cl)C2)C(=O)N1 (stereo not shown) [Example 84, 2-(2-Chloro-4-nitrophenyl)-2,7-diazaspiro[4.6]undecane-6,8-dione]
33 | < 50 µM | N#Cc1ccc(N2CCC3(CCCC(=O)NC3=O)C2)cc1 (stereo not shown) [Example 179, 4-(6,8-Dioxo-2,7-diazaspiro[4.6]undecan-2-yl)benzonitrile]
34 | 50 to 100 µM | Cn1c(=O)n(C2CCCC(=O)NC2=O)c2cccc(I)c21 (stereo not shown) [Example 210, 3-(4-Iodo-3-methyl-2-oxobenzimidazol-1-yl) azepane-2,7-dione]
35 | < 50 µM | Cc1sc2c(c1C)C(c1ccc(Cl)cc1)=N[C@@H](CC(=O)NCCCCCCCCNC(=O)CCc1nn(C3CCCC(=O)NC3=O)c3ccccc13)c1nnc(C)n1-2 (stereo partly drawn) [Example 334, N-[8-[[2-[(9S)-7-(4-chlorophenyl)-4,5,13-trimethyl-3-thia-1,8,11,12-tetraazatricyclo[8.3.0.02,6]trideca-2(6),4,7,10,12-pentaen-9-yl]acetyl]amino]octyl]-3-[1-(2,7-dioxoazepan-3-yl)indazol-3-yl]propanamide]
36 | ≥ 100 µM | O=C1COCC2(CCN(C(=O)c3ccccc3)CC2)C(=O)N1 [Example 13-2, 3-benzoyl-8-oxa-3,11-diazaspiro[5.6]dodecane-10,12-dione]

Row | Structure (SMILES) | Kd
37 | Cn1c(=O)n(C2CCCC(=O)NC2=O)c2cccc(C3=CCN(CC(=O)OC(C)(C)C)CC3)c21 (stereo not shown) [Example 222, tert-Butyl 2-[4-[1-(2,7-dioxoazepan-3-yl)-3-methyl-2-oxobenzimidazol-4-yl]-3,6-dihydro-2H-pyridin-1-yl]acetate] | 50 to 100 µM
